In patent US10538535B2, “Antitumoral compounds” (priority 2017, dated 2020):
Like-named read-outs stand apart in the source and are kept apart here.

Columns and labels:
Assay in all cases: cells
[1] = test system: PSN1 cells; settings: Homo sapiens, PSN1, 72 h; for CC50: read-out: LC50; for IC (TGI): read-out: TGI
Source text: (§1) The aim of this assay is to evaluate the in vitro cytostatic (ability to delay or arrest tumor cell growth) or cytotoxic (ability to kill tumor cells) activity of the samples being tested.
(§2) A colorimetric assay, using sulforhodamine B (SRB) reaction has been adapted to provide a quantitative measurement of cell growth and viability (following the technique described by Skehan et al. J. Natl. Cancer Inst. 1990, 82, 1107-1112). Another colorimetric assay based on 3-(4,5-Dimethylthiazol-2-yl)-2,5-diphenyltetrazolium bromide (MTT) reduction to a purple formazan has been also used to assess the antiproliferative activity (following the technique described by Mosmann et al. J. Immunol. Meth. 1983, 65, 55-63).
(§3) These forms of assays employ 96-well cell culture microplates following the standards of the American National Standards Institute and the Society for Laboratory Automation and Screening (ANSI SLAS 1-2004 (R2012) Oct. 12, 2011. All the cell lines used in this study were obtained from the American Type Culture Collection (ATCC) and derive from different types of human cancer.
(§4) A549, HT29, MDA-MB-231 and PSN1 cells were maintained in Dulbecco's Modified Eagle Medium (DMEM) while PC-3 and 22Rv1 cells were maintained in Roswell Park Memorial Institute Medium (RPMI). All cell lines were supplemented with 10% Fetal Bovine Serum (FBS), 2 mM L-glutamine, 100 U/mL penicillin, and 100 […] at 37° C., 5% CO2 and 98% humidity. For the experiments, cells were harvested from subconfluent cultures using trypsinization and resuspended in fresh medium before counting and plating.
(§5) A549, HT29, MDA-MB-231 and PSN1 cells were seeded in 96 well microtiter plates, at 5000 cells per well in aliquots of 150 μL, and allowed to attach to the plate surface for 18 hours (overnight) in drug free medium. After that, one control (untreated) plate of each cell line was fixed (as described below) and used for time zero reference value. Culture plates were then treated with test compounds (50 μL aliquots of 4× stock solutions in complete culture medium plus 4% DMSO) using ten 2/5 serial dilutions (concentrations ranging from 10 to 0.003 μg/mL) and triplicate cultures (1% final concentration in DMSO). After 72 hours treatment, the antitumor effect was measured by using the SRB methodology: Briefly, cells were washed twice with PBS, fixed for 15 min in 1% glutaraldehyde solution at room temperature, rinsed twice in PBS, and stained in 0.4% SRB solution for 30 min at room temperature. Cells were then rinsed several times with 1% acetic acid solution and air-dried at room temperature.
(§6) Effects on cell growth and survival were estimated by applying the NCI algorithm (Boyd M R and Paull K D. Drug Dev. Res. 1995, 34, 91-104). The values obtained in triplicate cultures were fitted by nonlinear regression to a four-parameters logistic curve by nonlinear regression analysis.

[2] = test system: HT29 cells; settings: for CC50: read-out: LC50; for IC (TGI): read-out: TGI
Source text: as §1, §2, §3, §4, §5, §6

[3] = test system: A549 cells; settings: for CC50: read-out: LC50; for IC (TGI): read-out: TGI
Source text: as §1, §2, §3, §4, §5, §6

[4] = test system: MDA-MB-231 cells; settings: for GI50 / CC50 / IC (TGI): Homo sapiens, MDA-MB-231, 72 h; for CC50: read-out: LC50; for IC (TGI): read-out: TGI
Source text: as §1, §2, §3, §4, §5, §6

SMILES | CC50 [1] [nM] | IC (TGI) [1] [nM] | CC50 ([2]; Homo sapiens, HT-29, 72 h) [nM] | IC (TGI) ([2]; Homo sapiens, HT-29, 72 h) [nM] | CC50 ([3]; Homo sapiens, A549, 72 h) [nM] | other results
COc1c(C)cc2c(c1O)[C@@H]1[C@@H]3[C@@H]4SC[C@]5(N[C@H](C)Cc6c5[nH]c5ccccc65)C(=O)OC[C@@H](c5c6c(c(C)c(OC(C)=O)c54)OCO6)N3[C@@H](C#N)[C@H](C2)N1C [A] | 19.3 | 15.4 | > 129 | 8.36 | > 129 | GI50 [1]: 12.9 nM; GI50 ([2]; Homo sapiens, HT-29, 72 h): 7.71 nM; GI50 ([3]; Homo sapiens, A549, 72 h): 8.36 nM; IC (TGI) ([3]; Homo sapiens, A549, 72 h): 8.87 nM; GI50 [4]: 7.07 nM; CC50 [4]: 14.1 nM; IC (TGI) [4]: 9.38 nM
COc1c(C)cc2c(c1O)[C@@H]1[C@@H]3[C@@H]4SC[C@]5(N[C@@H](C)Cc6c5[nH]c5ccccc65)C(=O)OC[C@@H](c5c6c(c(C)c(OC(C)=O)c54)OCO6)N3[C@@H](C#N)[C@H](C2)N1C [B] | 23.1 | 20.6 | > 129 | 9.13 | > 129 | GI50 [1]: 19.3 nM; GI50 ([2]; Homo sapiens, HT-29, 72 h): 8.48 nM; GI50 ([3]; Homo sapiens, A549, 72 h): 20.6 nM; IC (TGI) ([3]; Homo sapiens, A549, 72 h): 21.9 nM; GI50 [4]: 9 nM; CC50 [4]: 34.7 nM; IC (TGI) [4]: 16.7 nM
COc1c(C)cc2c(c1O)[C@@H]1[C@@H]3[C@@H]4SC[C@]5(N[C@@H](CO)Cc6c5[nH]c5ccccc65)C(=O)OC[C@@H](c5c6c(c(C)c(OC(C)=O)c54)OCO6)N3[C@@H](C#N)[C@H](C2)N1C [Compound 3-R] | > 126 | 0.605 | > 126 | > 126 | > 126 | GI50 ([1]; PSN1, 72 hours treatment, SRB): 0.39 nM; IC (TGI) ([3]; Homo sapiens, A549, 72 h): 0.579 nM; CC50 [4]: 1.25 nM; IC (TGI) [4]: 0.504 nM
COc1c(C)cc2c(c1O)[C@@H]1[C@@H]3[C@@H]4SC[C@]5(N[C@H](COC(C)=O)Cc6c5[nH]c5ccccc65)C(=O)OC[C@@H](c5c6c(c(C)c(OC(C)=O)c54)OCO6)N3[C@@H](C#N)[C@H](C2)N1C [Compound 3a-S] | 12 | 3.59 | > 120 | 3.23 | > 120 | GI50 ([1]; PSN1, 72 hours treatment, SRB): 2.15 nM; GI50 ([2]; Homo sapiens, HT-29, 72 h): 2.99 nM; GI50 ([3]; Homo sapiens, A549, 72 h): 3.11 nM; IC (TGI) ([3]; Homo sapiens, A549, 72 h): 3.23 nM; GI50 [4]: 2.87 nM; CC50 [4]: 4.9 nM; IC (TGI) [4]: 3.59 nM
COc1c(C)cc2c(c1O)[C@@H]1[C@@H]3[C@@H]4SC[C@]5(N[C@H](COC(C)=O)Cc6c5[nH]c5ccccc65)C(=O)OC[C@@H](c5c6c(c(C)c(OC(C)=O)c54)OCO6)N3[C@@H](O)[C@H](C2)N1C [Compound 4a-S] | – | – | > 121 | – | > 121 | –
C=CCOC(=O)NC[C@H]1Cc2c([nH]c3ccccc23)[C@@]2(CS[C@@H]3c4c(OC(C)=O)c(C)c5c(c4[C@H](COC2=O)N2[C@@H]3[C@H]3c4c(cc(C)c(OC)c4O)C[C@@H]([C@@H]2C#N)N3C)OCO5)N1 [Compound 10-R] | – | – | > 114 | > 114 | > 114 | –
C=CCOC(=O)NC[C@@H]1Cc2c([nH]c3ccccc23)[C@@]2(CS[C@@H]3c4c(OC(C)=O)c(C)c5c(c4[C@H](COC2=O)N2[C@@H]3[C@H]3c4c(cc(C)c(OC)c4O)C[C@@H]([C@@H]2C#N)N3C)OCO5)N1 [Compound 10-S] | – | – | > 1140 | – | – | –
COc1c(C)cc2c(c1O)[C@@H]1[C@@H]3[C@@H]4SC[C@]5(N[C@@H](CN)Cc6c5[nH]c5ccccc65)C(=O)OC[C@@H](c5c6c(c(C)c(OC(C)=O)c54)OCO6)N3[C@@H](C#N)[C@H](C2)N1C [Compound 11-R] | > 126 | 1.89 | > 126 | > 126 | > 126 | GI50 ([1]; PSN1, 72 hours treatment, SRB): 1.39 nM; GI50 ([2]; Homo sapiens, HT-29, 72 h): 1.39 nM; GI50 ([3]; Homo sapiens, A549, 72 h): 1.77 nM
COc1c(C)cc2c(c1O)[C@@H]1[C@@H]3[C@@H]4SC[C@]5(N[C@H](CN)Cc6c5[nH]c5ccccc65)C(=O)OC[C@@H](c5c6c(c(C)c(OC(C)=O)c54)OCO6)N3[C@@H](C#N)[C@H](C2)N1C [Compound 11-S] | – | – | > 126 | > 126 | > 126 | –
C=CCOC(=O)NC[C@H]1Cc2c([nH]c3ccccc23)[C@@]2(CS[C@@H]3c4c(OC(C)=O)c(C)c5c(c4[C@H](COC2=O)N2[C@@H]3[C@H]3c4c(cc(C)c(OC)c4O)C[C@@H]([C@@H]2O)N3C)OCO5)N1 [Compound 13-R] | – | – | > 115 | – | > 115 | –
C=CCOC(=O)NC[C@@H]1Cc2c([nH]c3ccccc23)[C@@]2(CS[C@@H]3c4c(OC(C)=O)c(C)c5c(c4[C@H](COC2=O)N2[C@@H]3[C@H]3c4c(cc(C)c(OC)c4O)C[C@@H]([C@@H]2O)N3C)OCO5)N1 [Compound 13-S] | – | – | > 1150 | – | – | –
COc1c(C)cc2c(c1O)[C@@H]1[C@@H]3[C@@H]4SC[C@]5(N[C@H](C(=O)O)Cc6c5[nH]c5ccccc65)C(=O)OC[C@@H](c5c6c(c(C)c(OC(C)=O)c54)OCO6)N3[C@@H](C#N)[C@H](C2)N1C [Compound 14-S] | > 124 | > 124 | > 124 | > 124 | > 124 | GI50 [1]: > 124 nM; GI50 ([2]; Homo sapiens, HT-29, 72 h): 121 nM; GI50 ([3]; Homo sapiens, A549, 72 h): > 124 nM; IC (TGI) ([3]; Homo sapiens, A549, 72 h): > 124 nM; GI50 [4]: 54.5 nM; CC50 [4]: > 124 nM; IC (TGI) [4]: 113 nM
COc1c(C)cc2c(c1O)[C@@H]1[C@@H]3[C@@H]4SC[C@]5(N[C@@H](CO)Cc6c5oc5ccccc65)C(=O)OC[C@@H](c5c6c(c(C)c(OC(C)=O)c54)OCO6)N3[C@@H](O)[C@H](C2)N1C [Compound 39-R] | – | – | > 127 | – | > 127 | –
C=CCOC(=O)NC[C@H]1Cc2c(oc3ccccc23)[C@@]2(CS[C@@H]3c4c(OC(C)=O)c(C)c5c(c4[C@H](COC2=O)N2[C@@H]3[C@H]3c4c(cc(C)c(OC)c4O)C[C@@H]([C@@H]2C#N)N3C)OCO5)N1 [Compound 45-R] | – | – | > 114 | – | – | –
C=CCOC(=O)NC[C@@H]1Cc2c(oc3ccccc23)[C@@]2(CS[C@@H]3c4c(OC(C)=O)c(C)c5c(c4[C@H](COC2=O)N2[C@@H]3[C@H]3c4c(cc(C)c(OC)c4O)C[C@@H]([C@@H]2C#N)N3C)OCO5)N1 [Compound 45-S] | – | – | > 114 | – | – | –
COc1c(C)cc2c(c1O)[C@@H]1[C@@H]3[C@@H]4SC[C@]5(N[C@@H](CN)Cc6c5oc5ccccc65)C(=O)OC[C@@H](c5c6c(c(C)c(OC(C)=O)c54)OCO6)N3[C@@H](C#N)[C@H](C2)N1C [Compound 46-R] | – | – | – | – | – | TGI ([2]; HT29, 72 hours treatment, SRB): 1.39E−09 Molar; CC50 ([2]; HT29, 72 hours treatment, SRB): > 126 nM; TGI ([3]; A549, 72 hours treatment, SRB): 2.77E−09 Molar; CC50 ([3]; A549, 72 hours treatment, SRB): > 126 nM; TGI ([4]; MDA-MB-231, 72 hours treatment, SRB): 1.39E−09 Molar
COc1c(C)cc2c(c1O)[C@@H]1[C@@H]3[C@@H]4SC[C@]5(N[C@H](CN)Cc6c5oc5ccccc65)C(=O)OC[C@@H](c5c6c(c(C)c(OC(C)=O)c54)OCO6)N3[C@@H](C#N)[C@H](C2)N1C [Compound 46-S] | – | – | > 126 | – | > 126 | –
